Measurements published in US20060069123A1, “Substituted dipiperidine CCR2 antagonists” (priority 2004, published 2006).
Read-outs that look alike come from different tables or passages of the source.

Legend:
[1] = system: Lewis rats; experiment: Adjuvant-Induced Arthritis Model (Therapeutic Dosing from Day 12-16); format: in vivo; settings: ip, bid, 100 mg/kg, days 12-16
Text: Adjuvant-Induced Arthritis Model (Therapeutic Dosing from Day 12-16)

[2] = system: DBA1 mice; settings: 100 mg/kg ip, bid, day 20 to day 35, in either vehicle
Description: Collagen-Induced Arthritis Model
In a collagen-induced arthritis model in mice, DBA1 mice were immunized with bovine type II collagen on day 0, injected (sc) with lipopolysaccharide (LPS) on day 21, and dosed (ip, bid) with a test compound at either 25, 50 or 100 mg/kg from day 20 to day 35. Body weight was monitored, and clinical disease score recorded every 2-3 days starting on day 20.
Test compound was dosed in one of two vehicles:
• 1) 10% Pharmasolve:20% PEG-400:70% of a 1% solution of Tween-80 in water; or, • 2) 30% PEG400:20% Solutol:50% of a 0.1 N solution of NaHCO3.

[3] = system: THP-1 cells; settings: Homo sapiens, THP-1, read-out: Inhibition of MCP-1 Induced Calcium Ion Influx IC50
[4] = system: Lewis rats; settings: ip, bid, 100 mg/kg, days 0-14
[5] = system: THP-1 cells; experiment: MCP-1 Induced Chemotaxis in THP-1 Cells; format: cell-based; settings: Homo sapiens, THP-1, 3 h, read-out: Inhibition of MCP-1 Induced Chemotaxis IC50
[6] = system: BALB/c female mice; experiment: Mouse Model of Allergic Asthma; format: in vivo; settings: 100 mg/kg ip
Text: Mouse Model of Allergic Asthma: An allergic asthma model in mice was used to test compounds of the invention for therapeutic effect on asthmatic response as a function of airway inflammation and hyperresponsiveness ([…], et al., J. Phar. Exp. Ther., 2000, 295: 912-926). Airway hyperresponsiveness in asthmatic patients is a cardinal feature of allergic asthma and is maintained as a result of persistent airway inflammation. Eosinophils are the prominent cells involved in airway inflammation and are found in large numbers in sputum and bronchoalveolar lavage fluids. Airway responsiveness was measured in unrestrained mice by noninvasive whole body plethysmography using a BioSystem plethysmography instrument (BUXCO, Troy, N.Y.). Each animal was individually placed in the plethysmography instrument chamber and chamber pressure was used as a measure of the difference between thoracic volume expansion or contraction and air volume removed or added to the chamber during breathing. The differential of this function with respect to time produced a pseudo flow value that was proportionate to the difference between the rate of the thoracic volume expansion and nasal air flow (Hamelmann, et al., J. Respir. Crit. Care Med., 1997, 156: 766-775). Three treatment groups of BALB/c female mice (6-8 weeks old) were tested in the 32 day study: • Group 1: vehicle control phosphate buffered saline (PBS)-sensitized and PBS-challenged mice; • Group 2: positive control ovalbumin (OVA)-sensitized and OVA-challenged mice; and, • Group 3: OVA-sensitized and OVA-challenged mice treated with Compound 13. […] • Group 1 mice were sensitized by injection (ip) with PBS; and, • Group 2 mice were OVA sensitized by injection (ip) with OVA (20 μg) dissolved in PBS adsorbed on 2.25 mg alum. […] Day 32: The three treatment groups were challenged via airway by means of methacholine inhalation and asthmatic response was measured as a function of airway hyper-responsiveness. A baseline reading over a 5 min period for each of the mice in the three treatment groups was taken in the plethysmography instrument, then the baseline readings were averaged. • Group 1 mice were nebulized with saline at increasing doses (1-30 mg/ml) over a 2 min period. • Group 2 (first subset) and Group 3 mice were nebulized with methacholine at increasing doses (1-30 mg/ml) over a 2 min period. Post-Challenge Phase A 5 min post-challenge reading for each of the mice was taken and the readings were averaged. Reduction in airway hyperresponsiveness was calculated according to the following formula: [formula] Airway inflammation was measured by eosinophil cell count in bronchoalveolar saline lavage samples (1 mL) of the mice from the three groups. […] The number of eosinophils was counted and the cell concentration adjusted to 0.1×10^6/mL.

[7] = OVA-sensitized and OVA-challenged mice

| SMILES | decreased swelling in the injected paw [1] [%] | inhibited contralateral paw swelling [1] [%] | inhibited the development of arthritis (clinical disease score on day 35) [2] | IC50 [3] [nM] | decrease in swelling in the injected paws [4] [%] | swelling of the contralateral paws [4] | IC50 [5] [nM] | Airway Hyperresponsiveness (whole body plethysmography reading) ([6]; Group 3: OVA-sensitized and OVA-challenged mice, methacholine challenge day 32, n=4) | Eosinophil Infiltration (eosinophil cell count in bronchoalveolar lavage) ([6]; Group 3: OVA-sensitized and OVA-challenged mice, n=3) | reduction in airway hyperresponsiveness compared to the non-treated mice [6, 7] [%] | reduction in airway inflammation compared to the non-treated mice [6, 7] [%] |
| --- | --- | --- | --- | --- | --- | --- | --- | --- | --- | --- | --- |
| O=C(O)C(C1CCN(C(=O)/C=C/c2cc(F)c(F)c(F)c2)CC1)N1CCC(c2c[nH]c3ccccc23)CC1 (centres unmarked) [Cpd 6, [4-(1H-indol-3-yl)-piperidin-1-yl]-{1-[(2E)-3-(3,4,5-trifluoro-phenyl)-acryloyl]-piperidin-4-yl}-acetic acid] | 40 | 51 | greater than 90% | 5 | 40 | insignificant swelling | 8 |  |  |  |  |
| O=C(O)[C@H](C1CCN(C(=O)/C=C/c2cc(F)c(F)c(F)c2)CC1)N1CCC(c2c[nH]c3ccccc23)CC1 [Cpd 13, (S)-{[4-(1H-indol-3-yl)-piperidin-1-yl]}-{1-[(2E)-3-(3,4,5-trifluoro-phenyl)-acryloyl]-piperidin-4-yl}-acetic acid] |  |  |  |  |  |  |  | 1147±49 | 0.2±0.1 ×10^5/ml | ~36 | 75 |
